The data set deals with dhBMECs in microvessels. Put plainly: Analysis of cell behavior in tissue-engineered microvessels. It is filed as cell-based, human. An excerpt:
To monitor cell dynamics, cell loss and proliferation events were counted manually. Rates of cell loss (% h^−1), division (% h^−1), turnover (% h^−1), and cell loss at the site of a focal leak (%) were quantified from phase contrast imaging sequences, as reported previously. Briefly, the total number of endothelial cells was counted manually for each microvessel plane, utilizing a region approximately 100 μm wide corresponding to about a fifth of the channel circumference. Cell loss was identified by observing the removal of a cell from the microvessel. Cell loss from the monolayer occurred through two processes: (1) apoptotic loss, in which a cell constricts, releases its contents into the vessel lumen, which is then removed from the monolayer over a period of 20-60 minutes, and (2) non-apoptotic loss, in which a cell swells and disappears from the monolayer over a period of 2-6 minutes. Cell division was identified by observing cell compression, alignment of chromosomes, and the formation of daughter cells. The rate of turnover (% h^−1) is the difference between the rate of cell division and the rate of cell loss. A cell loss event was identified to be at the site of a focal leak if it occurred within <50 μm and <4 minutes of the occurrence of a focal leak. For a limited set of experiments, the WTC iPSC line [Kreitzer, F. R., et al., Am J Stem Cells, 2013. 2(2): p. 119-31] with GFP-tagged zona occludens-1 (Allen Cell Institute) was used to facilitate live-cell monitoring of tight junction organization.
Confocal z-stacks (0.4 μm in thickness) at 40× magnification were obtained on a swept field confocal microscope system (Prairie Technologies). Illumination was provided by an MLC 400 monolithic laser combiner (Keysight Technologies). Complete reconstruction of the microvessel lumen required approximately four hundred slices. Confocal imaging was conducted before, during, and after exposure to 50 μM·minute melittin treatment.

Turning to `CC[C@H](C)[C@H](NC(=O)CN)C(=O)NCC(=O)N[C@@H](C)C(=O)N[C@H](C(=O)N[C@@H](CC(C)C)C(=O)N[C@@H](CCCCN)C(=O)N[C@H](C(=O)N[C@@H](CC(C)C)C(=O)N[C@H](C(=O)N[C@H](C(=O)NCC(=O)N[C@@H](CC(C)C)C(=O)N1CCC[C@H]1C(=O)N[C@@H](C)C(=O)N[C@@H](CC(C)C)C(=O)N[C@H](C(=O)N[C@@H](CO)C(=O)N[C@@H](Cc1c[nH]c2ccccc12)C(=O)N[C@H](C(=O)N[C@@H](CCCCN)C(=O)N[C@@H](CCCNC(=N)N)C(=O)N[C@@H](CCCCN)C(=O)N[C@@H](CCCNC(=N)N)C(=O)N[C@@H](CCC(N)=O)C(=O)N[C@@H](CCC(N)=O)C(N)=O)[C@@H](C)CC)[C@@H](C)CC)[C@@H](C)O)[C@@H](C)O)C(C)C)C(C)C` [melittin], the cell division rate entry (across melittin doses 3-100 μM·minute) is given as “about 1 % h^−1”. Besides, where the note is “doses 3-100 μM·minute”, the “cell loss rate following melittin exposure” value was “dose-dependent” and the “turnover of dhBMECs (division rate minus loss rate)” value was “negative”. For the same compound, where the note is “high melittin doses (100 μM·min)”, the “cell response, GFP-tagged ZO1 dhBMEC microvessels” value was “cells contracted”.

For the origin of these results see patent US20240009269A1 (priority 2020, published 2024).
